Measurements: the supplement of paper PMC10307832

Tests used:
Assay in all cases: relative viability (nuclei count vs DMSO), 5 days (fraction); higher = more cells survive
BAM7 + Phenformin = compound: CCOC1=CC=CC=C1N=NC2=C(NN(C2=O)C3=NC(=CS3)C4=CC=CC=C4)C [BAM7] + N=C(N)NC(=N)NCCc1ccccc1 [Phenformin] (partner 250 µM)
In short: (§1)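 Lung cancer cell lines in 1536-well plates were dosed by pin tool the day after seeding, either with one drug alone or with a fixed anchor-drug dose plus five library-drug doses (not always all listed) in √10 steps. After 5 days, cells were fixed and their nuclei stained in one step (final 0.05% Triton X-100, 1% formaldehyde, 1 ug/ml Hoechst), then counted on 4× images. Relative viability is the nuclei count in treated wells divided by that in vehicle wells. Values are medians of duplicate plates.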

[1] = compound: CCn1c(-c2nonc2N)nc2c(C#CC(C)(C)O)ncc(OC[C@H]3CCCNC3)c21 + CS(=O)(=O)CCNCc1ccc(-c2ccc3ncnc(Nc4ccc(OCc5cccc(F)c5)c(Cl)c4)c3c2)o1 [Lapatinib] (partner 2 µM)
In short: as §1

BAM7 + Vorinostat = compound: CCOC1=CC=CC=C1N=NC2=C(NN(C2=O)C3=NC(=CS3)C4=CC=CC=C4)C [BAM7] + O=C(CCCCCCC(=O)Nc1ccccc1)NO [Vorinostat] (partner 1 µM)
In short: as §1

[2] = compound: CCn1c(-c2nonc2N)nc2c(C#CC(C)(C)O)ncc(OC[C@H]3CCCNC3)c21 + O=C(CCCCCCC(=O)Nc1ccccc1)NO [Vorinostat] (partner 1 µM)
In short: as §1

Row | Cell Line | relative viability (BAM7 + Phenformin; first compound 0.5 µM) | relative viability (BAM7 + Phenformin; first compound 5 µM) | relative viability (BAM7 + Phenformin; first compound 15.81 µM) | relative viability (BAM7 + Phenformin; first compound 50 µM) | relative viability ([1]; first compound 0.01 µM) | relative viability ([1]; first compound 0.03162 µM) | relative viability ([1]; first compound 0.1 µM) | relative viability ([1]; first compound 0.3162 µM) | relative viability ([1]; first compound 1 µM) | relative viability (BAM7 + Vorinostat; first compound 0.5 µM) | relative viability (BAM7 + Vorinostat; first compound 5 µM) | relative viability (BAM7 + Vorinostat; first compound 15.81 µM) | relative viability (BAM7 + Vorinostat; first compound 50 µM) | relative viability ([2]; first compound 0.01 µM) | relative viability ([2]; first compound 0.03162 µM) | relative viability ([2]; first compound 0.1 µM) | relative viability ([2]; first compound 0.3162 µM) | relative viability ([2]; first compound 1 µM)
1 | NCI-H1975 | 0.401 | 0.425 | 0.391 | 0.427 | 0.828 | 0.975 | 0.927 | 0.799 | 0.728 | 0.681 | 0.713 | 0.631 | 0.616 | 0.705 | 0.72 | 0.717 | 0.631 | 0.684
2 | CAL-12T | 0.576 | 0.601 | 0.586 | 0.607 | 0.613 | 0.665 | 0.845 | 0.585 | 0.595 | 0.794 | 0.788 | 0.751 | 0.655 | 0.747 | 0.679 | 0.683 | 0.675 | 0.603
3 | NCI-H1623 | 0.606 | 0.561 | 0.542 | 0.673 |  |  |  |  |  |  |  |  |  |  |  |  |  | 
4 | HCC-44 | 0.351 | 0.252 | 0.172 | 0.273 | 0.93 | 0.975 | 1.01 | 0.989 | 1.09 | 1.02 | 1.11 | 1.04 | 1.07 | 1.07 | 1.07 | 1.05 | 1.07 | 1.04
5 | EKVX | 0.241 | 0.235 | 0.198 | 0.231 | 0.235 | 0.203 | 0.223 | 0.206 | 0.223 | 0.611 | 0.664 | 0.457 | 0.513 | 0.705 | 0.765 | 0.689 | 0.726 | 0.807
6 | NCI-H1651 | 0.306 | 0.303 | 0.343 | 0.354 | 0.816 | 0.854 | 0.798 | 0.715 | 0.842 | 0.543 | 0.59 | 0.661 | 0.612 | 0.553 | 0.606 | 0.613 | 0.52 | 0.632
7 | NCI-H1944 | 0.223 | 0.199 | 0.205 | 0.22 | 0.767 | 0.825 | 0.751 | 0.773 | 0.819 | 0.521 | 0.46 | 0.396 | 0.43 | 0.645 | 0.477 | 0.568 | 0.514 | 0.585
8 | NCI-H1703 |  |  |  |  | 0.998 | 1.23 | 1.05 | 0.739 | 0.662 |  |  |  |  |  |  |  |  | 
9 | Calu-6 |  |  |  |  | 1.06 | 1.14 | 1.11 | 1.04 | 1.07 |  |  |  |  |  |  |  |  | 
10 | EBC-1 |  |  |  |  | 0.219 | 0.197 | 0.213 | 0.236 | 0.227 |  |  |  |  |  |  |  |  | 
11 | SW 1573 | 0.386 | 0.381 | 0.327 | 0.39 | 1.1 | 1 | 1.02 | 0.869 | 0.946 | 0.715 | 0.735 | 1.06 | 0.606 | 0.374 | 0.82 | 0.451 | 0.367 | 0.499
12 | A-427 | 0.401 | 0.323 | 0.288 | 0.35 | 0.962 | 1.05 | 0.932 | 1.03 | 1.03 | 0.829 | 0.876 | 0.834 | 0.852 | 0.857 | 0.858 | 0.844 | 0.783 | 0.889
13 | NCI-H2347 | 0.622 | 0.31 |  | 0.37 | 0.891 | 0.934 | 0.995 | 0.897 | 0.889 | 0.691 | 0.653 | 0.516 | 0.588 | 0.602 | 0.522 | 0.611 | 0.543 | 0.55
14 | NCI-H1355 | 0.462 | 0.421 | 0.425 | 0.458 | 1.03 | 0.944 | 0.998 | 0.926 | 1.02 | 0.617 | 0.553 | 0.544 | 0.566 | 0.659 | 0.549 | 0.617 | 0.55 | 0.619
15 | NCI-H358 | 0.343 | 0.383 | 0.369 | 0.376 | 0.453 | 0.485 | 0.449 | 0.4 | 0.398 |  | 0.644 | 0.528 | 0.667 | 0.766 | 0.691 | 0.787 | 0.629 | 0.662
16 | PC-3 [JPC-3] | 0.447 | 0.491 | 0.458 | 0.439 | 0.442 | 0.433 | 0.472 | 0.449 | 0.445 | 0.754 | 0.793 | 0.775 | 0.638 | 0.553 |  | 0.73 | 0.76 | 0.751
17 | NCI-H2228 | 0.302 | 0.355 | 0.418 | 0.317 | 1.27 | 1.09 | 1.02 | 0.755 | 0.729 | 0.448 | 0.586 | 0.552 | 0.59 | 0.539 | 0.828 | 0.409 | 0.7 | 0.497
18 | HOP-62 | 0.668 | 0.867 | 0.664 | 0.714 | 1.11 | 1.05 | 1 | 0.993 | 0.87 | 0.682 | 0.661 | 0.591 | 0.694 | 0.635 | 0.688 | 0.644 | 0.555 | 0.644
19 | HARA | 0.425 | 0.51 | 0.431 | 0.428 | 0.718 | 0.7 | 0.684 | 0.554 | 0.95 | 0.333 | 0.767 | 0.304 | 0.439 | 0.487 | 0.488 | 0.638 | 0.44 | 0.532
20 | NCI-H838 | 0.544 | 0.572 | 0.597 | 0.648 | 1.11 | 1.13 | 1.1 | 0.853 | 0.968 | 0.741 | 0.776 | 0.723 | 0.673 | 0.728 | 0.786 | 0.722 | 0.685 | 0.711
21 | NCI-H1755 | 0.657 | 0.657 | 0.611 | 0.645 | 1.03 | 1.02 | 1.03 | 0.993 | 1.07 | 0.751 | 0.867 | 0.79 | 0.844 | 0.725 | 0.66 | 0.637 | 0.762 | 0.841
